Test results published in patent US11020457B2, “Compositions and methods for protecting the kidney from ischemia reperfusion injury” (University of Virginia Patent Foundation, priority 2013, dated 2021).
“Also recorded” adds a separate entry of the source.

Key:
rat model of AI = details: AI induced with PG-APS; cited from earlier work
animals models of AKI = details: cited from earlier work; for renal IRI severity: literature (37-39; 7, 37)
hepcidin [1] = details: hepcidin inducers; cited from earlier work
splenocytes from WT mice = assay: Iron stimulation of splenocytes, IL-6 secretion by ELISA; assay type: cell-based; details: iron treatment for 4 hours, vs untreated and hepcidin-treated cells, p<0.005; FIG. 10c
Description: Splenocytes were harvested from 10-week-old B6 male mice. After excising the spleen, red blood cells were lysed and the remaining splenocytes were seeded at 1×10^6 cells/mL in 24-well tissue culture plates and cultured under 5% CO2 at 37° C. for 24 hours. The culture medium consisted of RPMI 1640 medium supplemented with 10% fetal calf serum (FCS), 100 U/mL penicillin, 100 μg/mL streptomycin, 1% non-essential amino acids (Gibco/Life Technologies, Foster, Calif., USA), 2 mM L-glutamine (Sigma), and 50/μM 2-mercaptoethanol. After resting for 24 hours, the cells were treated with 10 μM […] (FAC), 1 μg/mL hepcidin or saline for 4 hours. The cell culture supernatants were harvested and quantified for the levels of IL-6 by ELISA (eBioscience).

hepcidin [2] = details: within 2-5 days after the start of the treatment; cited from earlier work

Molecule: c1ccc2c(-c3cnn4cc(-c5ccc(N6CCNCC6)cc5)cnc34)ccnc2c1 [LDN-193189]
- anemia of inflammation (AI) (rat model of AI): effectively reversed anemia

Molecule: CC(=O)N(O)CCCCCNC(=O)CCC(=O)N(O)CCCCCNC(=O)CCC(=O)N(O)CCCCCN [desferrioxamine]
- protection in animal models of AKI (animals models of AKI; iron chelation): induces protection in diverse animals models of AKI
- renal IRI severity (animals models of AKI): attenuate IRI; also recorded: provide protection and significantly improve its severity and outcomes

Molecule: CC(C)Oc1ccc2c(=O)c(-c3ccccc3)coc2c1 [ipriflavone]
- active concentration, fold below that required for genistein's effect (hepcidin [1]): 10 fold

Molecule: O=C(CCCCCCC(=O)Nc1ccccc1)NO [vorinostat]
- active concentration, fold below that required for genistein's effect (hepcidin [1]): 10 fold

Molecule: ferrous sulfate [reference compound]
- IL-6 secretion into supernatants (splenocytes from WT mice): significantly increased splenocytes IL-6 secretion

Molecule: low-molecular-weight heparin
- decrease of serum hepcidin concentrations (hepcidin [2]): ~80%

Molecule: superoxide dismutase
- renal IRI severity (animals models of AKI): attenuate IRI
